Source: patent US20220160723A1, “PHARMACOLOGICAL MITIGATION OF LATE-STAGE TOXEMIA” (priority 2019, published 2022)
Entries after “also recorded” stand apart in the source; their conditions may differ. Like-named read-outs stand apart in the source and are kept apart here.

Tests used:
[1] = test system: ET-induced footpad swelling (edema); test: Mouse footpad swelling (edema) assay after ET injection; format: in vivo, mice; details: for protection against ET-induced footpad swelling (edema): in vivo mouse model, pre-treated mice, summary statement; for footpad swelling (edema) following ET injection: mice, 0.15 μg ET/paw (FIG. 5)
[2] = test system: Human Brain Microvascular Endothelial cells (HBMEC); test: Medium throughput quantification of whole cell area (CellMask green); format: cell-based; details: ET 250 ng/ml, 4 h, 8 wells per treatment (FIG. 2D, 3C)
[3] = test system: Human Brain Microvascular Endothelial cells (HBMEC); format: cell-based; details: for ET induced cortical actin rearrangement: HBMEC, 4 h; for ET-mediated actin remodeling / rearrangement: cultured endothelial cells (HBMEC), summary statement
HBMEC monolayer = test: Transwell monolayer permeability (Evans blue dye diffusion); format: cell-based, human; details: for ET induced disruption of monolayer integrity: HBMEC in transwell inserts, ET 250 ng/ml, 24 h, inhibitor 50 μM (FIG. 2E, 3G)
CFL1 = test: Western blot of total and phosphorylated CFL1 (Serine 3); format: cell-based, human; details: HBMEC
Protocol: FIGS. 4A-4I show ET induced IGF-1R, MEK and Rac1 signaling activate (dephosphorylate) the actin depolymerizing protein coflin (CFL1). […] ET induced a significant decrease in phosphorylated CFL1. (see FIG. 4B). FIG. 4B show levels of phosphorylated CFL1 relative to total CFL1 quantified from 2 independent experiments. p values indicate standard deviation. […] Total and phosphorylated CFL1 (Serine 3) levels were determined by western blot. […] (see FIG. 4D). FIG. 4D show levels of phosphorylated CFL1 relative to total CFL1 in whole cell lysates from HBMEC treated with ET in the presence or absence of IGF-1R inhibitor AG1024 and quantified from 2 independent experiments. […] Total and phosphorylated CFL1 (Serine 3) levels were determined by western blot. […] Total and phosphorylated CFL1 (Serine 3) levels were determined by western blot. […] (see FIG. 4G). FIG. 4G show levels of phosphorylated CFL1 relative to total CFL1 in whole cell lysates from HBMEC treated with ET in the presence or absence of the Rac1 inhibitor NSC23766 and quantified from 2 independent experiments. p values indicate standard deviation. […] Activation (dephosphorylation) of SSH1 in ET-treated and control cells was assessed by monitoring the levels of SSHI phosphorylated at Serine 978 relative to total SSHI in whole cell lysates by western blot. SSHI phosphorylation was reduced relative to untreated control cells at 240 min after ET treatment. […] Total and phosphorylated CFL1 (Serine 3) levels were determined by western blot.

Rac1 = test: Rac1-GTP pull-down with PAK-Beads and western blot; format: cell-based, human; details: HBMEC, ET 250 ng/ml
Protocol: FIGS. 2A-2E show ET induced actin rearrangement is dependent on Rac1 activation. […] Whole cell lysates were incubated with PAK-Beads, which specifically bind to GTP-bound Rac1. Bead bound Rac1-GTP and total Rac1 levels in cell lysate were determined by western blot with anti-Rac1 antibody. ET induced significant increase in Rac1-GTP (i.e. active Rac1) levels (see FIG. 2B). […] Cells were fixed and stained with cell mask green to visualize cytoplasm. Cell area was quantified from 8 wells for each treatment («-number of cells) using automated image analysis software. […] MRMEC were grown to confluence in transwell inserts, and treated with ET (250 ng/ml) for 24h, in the presence or absence of Rac1 inhibitor NSC23766 (50 μM). Changes in monolayer permeability were assessed by assaying the diffusion of Evans blue dye from apical to basal chamber of transwell inserts. […] Data represent mean changes in monolayer permeability from 2 independent experiments. p value indicates standard deviation.
FIGS. 3A-3H show ET-mediated Rac1 activation and actin rearrangement is dependent on an early induction of IGF-1R, PI3K and MEK signaling. […] Activation of IGF-1R in ET˜ireated and control cells was assessed by monitoring the levels of IGF-1R phosphorylated at Tyrosine 1135 and 1136 relative to total IGF-1R in whole cell lysates by western blot. ET induced a rapid (within 10 minutes), but transient activation of IGF-1R. […] Cells were fixed and stained with CellMask green to visualize cytoplasm. Cell area was quantified from 8 wells for each treatment (n-number of cells) using automated image analysis software. […] Whole cell lysates were incubated with PAK-Beads, which specifically bind to GTP-bound Rac1 . Bead bound Rac1-GTP and total Rac1 levels in cell lysate were determined by western blot with anti-Rac 1 antibody. […] Total and phosphorylated […] (Thr 308 and Ser 473), as well as those of ERK (Thr 202 and Tyr 204) was determined by western blot. ET induced a rapid (within 10-20 minutes) phosphorylation of AKT and ERK. […] Changes in monolayer to permeability were assessed by assaying the diffusion of Evans blue dye from apical to basal chamber of transwell. […] Data represent mean changes in monolayer permeability from 2 independent experiments. p value indicates standard deviation. […] Whole cell lysates were incubated with PAK-Beads, which specifically bind to GTP-hound RacL Bead bound Rac1-GTP and total Rac1 levels in cell lysate were determined by western blot with anti-Rac1 antibody.

[4] = ET 250 ng/ml, phalloidin (FIG. 3B, 3F)
[5] = cultured HBMEC model, summary statement
[6] = ET 250 ng/ml, 4 h (FIG. 4C, 4E, 4I)

Structure (SMILES) | protection against ET-induced footpad swelling (edema) [1] | footpad swelling (edema) following ET injection ([1]; pre-treatment 10 mg/kg) | ET induced cell area reduction [2] | ET induced cortical actin rearrangement [3, 4] | ET-mediated actin remodeling / rearrangement [3] | ET-mediated cell-cell barrier disruption (HBMEC monolayer; [5]) | ET induced CFL1 activation (dephosphorylation) (CFL1; [6]) | ET induced Rac1 activation (Rac1-GTP) (Rac1; 4 h (FIG. 3D)) | ET induced Rac1 activation (Rac1-GTP) (Rac1; 4 h (FIG. 3H)) | footpad swelling (edema) following ET injection ([1]; pre-treatment 75 mg/kg) | ET-mediated cell-cell barrier disruption (HBMEC monolayer) | footpad swelling (edema) following ET injection ([1]; pre-treatment 33 mg/kg) | ET induced disruption of monolayer integrity (HBMEC monolayer) | protection against ET-induced footpad swelling (edema) ([1]; trihydrochloride) | ET induced cortical actin rearrangement ([3]; ET 250 and 500 ng/ml, Alexa 488 phalloidin (FIG. 2C)) | ET-mediated actin remodeling / rearrangement ([3]; trihydrochloride) | ET induced CFL1 activation (dephosphorylation) (CFL1; ET 50, 100 and 250 ng/ml, 4 h (FIG. 4F))
CC(C)(C)c1cc(C=C(C#N)C#N)cc(Br)c1O [AG1024, 2-[(3-bromo-5˜iert-butyl-4-hydroxyphenyl)methylidene]propanedinitile] | near complete protection; also recorded: almost complete protection | consistently block | completely .rescued | almost completely inhibited | strongly inhibit; also recorded: almost completely rescue | almost completely rescue | significantly inhibited | completely rescued | significantly inhibited | – | – | – | – | – | – | – | –
CC(C)(C)c1cc(C(=O)/C(C#N)=N/Nc2cccc(Cl)c2)no1 [ES1-09] | – | consistently block | – | – | – | – | – | – | – | – | – | – | – | – | – | – | –
CS(=O)(=O)N1CCN(Cc2cc3nc(-c4cccc5[nH]ncc45)nc(N4CCOCC4)c3s2)CC1 [GDC-0941, pictilisib] | near complete protection; also recorded: almost complete protection | – | – | – | – | – | – | – | – | consistently block | almost completely rescue | – | – | – | – | – | –
O=C(NC[C@H](O)CO)c1ccncc1Nc1ccc(I)cc1F [AS703026] | near complete protection; also recorded: almost complete protection | – | – | significantly reduced | strongly inhibit; also recorded: almost completely rescue | almost completely rescue | significantly inhibited | – | significantly inhibited | – | – | consistently block | significantly reduced | – | – | – | –
CCN(CC)CCCC(C)Nc1nc(C)cc(Nc2ccc3nc(C)cc(N)c3c2)n1.Cl.Cl.Cl (stereo not shown) [NSC23766, N(6)˜[2-[[4˜(diethylamino)-1-methylbutyl]amino]-6-methyl-4-pyrimidinyl]-2-methyl-4,6-quinolinediamine trihydrochloride] | – | consistently block | significantly reduced | – | – | almost completely rescue | significantly inhibited | completely rescued | – | – | – | – | significantly reduced | near complete protection; also recorded: almost complete protection | almost completely inhibited | strongly inhibit; also recorded: almost completely rescue | significantly inhibited
